Results as given in PubChem BioAssay AID687000 (Broad Institute, 2013).
Values joined by “and” are separate entries in the source; they are usually repeats but may differ in a detail not shown here. Identical values can stand only once. Active and inactive are the calls of the source.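 How the source made its calls: active means fitted dose curve reaches 40% lysis signal rise at or below the highest valid concentration tested for that sample; inconclusive means flat fit between 30% and 70%, or poor curve fit; inactive means signal falls, stays flat within 30%, or no crossing.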

Each compound was assayed on C. neoformans lysis, adenylate kinase release luminescence, 4 h (assay: inducers of Cryptococcus neoformans cell lysis, dose response, AK release luminescence, cherry-picks (AID 687000)).

SMILES | AC40
Cc1cccc(C)c1NC(=O)CN(C)C(=O)C1CC1C (stereo not drawn) | > 15 µM (inactive)
O=C(NC(=S)Nc1cc(Cl)ccc1N1CCOCC1)c1ccccc1[N+](=O)[O-] | 13.6 µM
C[C@H]1CN([C@@H](C)CO)S(=O)(=O)c2ccc(Br)cc2O[C@@H]1CN(C)C(=O)CCN1CCCCC1 | > 15 µM (inactive)
CCOC(=O)NC(=S)Nc1ccc(C(C)(C)C)cc1Br | 3.16 µM
Cc1ccc(C(=O)NC(=S)Nc2ccccc2N2CCCC2)cc1[N+](=O)[O-] | > 15 µM (inactive)
COC(=O)C1=C(C)N(Cc2ccc(Br)cc2)C(=S)NC1c1cccc(Cl)c1 (stereo not drawn) | 1.17 µM
CCOC(=O)NC(=S)Nc1ccc(C(C)(C)C)cc1 | 1.21 µM
Cc1cc(Cl)ccc1NC(=S)NCc1ccc(F)cc1 | 2.25 µM
COc1cccc(-c2ccc3c(c2)[C@H]2[C@H](CCN2C(=O)Cc2ccncc2)[C@H](CO)N3C)c1 | > 15 µM (inactive)
COC(=O)C1=C(C)N(Cc2ccc(Cl)cc2)C(=S)NC1c1cccc(F)c1 (stereo not drawn) | 13.1 µM
CC(C)NC(=O)Nc1ccc2c(c1)CC(=O)N([C@@H](C)CO)C[C@@H](C)[C@H](CN(C)C(=O)Nc1ccc3c(c1)OCO3)O2 | > 15 µM (inactive)
COc1ccccc1/C=N/NC(=S)NCc1ccco1 | > 15 µM (inactive)
C[C@H](CO)N1C[C@H](C)[C@@H](CN(C)C(=O)c2ccncc2)OCCCC[C@H](C)Oc2ccc(NC(=O)Cc3ccccc3)cc2C1=O | > 15 µM (inactive)
COC(=O)C1=C(C)N(Cc2ccc(Cl)cc2)C(=S)NC1c1ccc(Br)cc1 (stereo not drawn) | 0.781 µM
CC(C)CC#Cc1cnc2c(c1)C(=O)N([C@H](C)CO)C[C@H](C)[C@@H](CN(C)Cc1cccc(F)c1)O2 | > 15 µM (inactive)
COC(=O)C1=C(C)N(CC(C)C)C(=S)NC1c1cccc(F)c1 (stereo not drawn) | > 15 µM (inactive) and 3.43 µM
COC(=O)C1=C(C)N(Cc2ccccc2)C(=S)NC1c1cccc(OC)c1 (stereo not drawn) | > 15 µM (inactive) and > 16 µM (inactive)
C[C@@H]1CN([C@@H](C)CO)C(=O)CCCn2nncc2CO[C@H]1CN(C)C(=O)Oc1cccc2ccccc12 | > 15 µM (inactive)
CCNC(=O)C[C@H]1CC[C@H](NC(=O)NC2CCCCC2)[C@@H](CO)O1 | > 15 µM (inactive)
Cc1cc(C)c(NC(=O)C2CCCN2CCC(C)C)c(C)c1 (stereo not drawn) | > 15 µM (inactive)
COCCN1C(=S)N[C@@H](c2ccccc2)C(C(=O)OC)=C1C | 13.5 µM
O=C(NC(=S)Nc1ccccc1N1CCOCC1)c1cccc([N+](=O)[O-])c1 | 5.69 µM

SMILES | AC40
CNC[C@@H]1OCCCC[C@@H](C)Oc2ccc(NS(=O)(=O)c3ccc(Cl)cc3)cc2C(=O)N([C@H](C)CO)C[C@H]1C | > 15 µM (inactive)
Cc1noc(C)c1S(=O)(=O)Nc1ccc2c(c1)CC(=O)N([C@H](C)CO)C[C@H](C)[C@H](CN(C)S(=O)(=O)c1cccs1)O2 | > 15 µM (inactive)
COc1ccc(CN(C)C[C@H]2Oc3ccc(NC(=O)Nc4ccc(F)cc4)cc3CC(=O)N([C@@H](C)CO)C[C@@H]2C)cc1 | > 16 µM (inactive)
CCCCN1C(=S)NC[C@@H]1Cc1ccccc1 | 5.11 µM
COCC(=O)N(C)C[C@H]1Oc2ncc(-c3ccccc3F)cc2C(=O)N([C@@H](C)CO)C[C@H]1C | > 15 µM (inactive)
CCc1ccc(C(=O)NC(=S)NCc2cccnc2)cc1 | 8.42 µM
C[C@@H]1CN([C@H](C)CO)C(=O)c2cc(C3=CCCCC3)cnc2O[C@H]1CN(C)C(=O)Cc1cccnc1 | > 15 µM (inactive)
O=C(NCCN1CCCCC1)[C@H]1N[C@H]2c3ccc(-c4ccncc4)c(=O)n3C[C@H]2[C@@H]1CO | 12.7 µM
COc1ccccc1CNC(=S)NCc1ccc(Cl)cc1 | 2.03 µM
O=C(NC(=S)Nc1ccccc1N1CCCC1)c1ccc([N+](=O)[O-])cc1 | 2.09 µM
C[C@@H]1CCCCO[C@@H](CN(C)C(=O)Nc2cccc3ccccc23)[C@@H](C)CN([C@H](C)CO)C(=O)c2cc(NS(=O)(=O)c3ccccc3)ccc2O1 | 14.2 µM
C[C@@H]1CCCCO[C@@H](CN(C)C(=O)Nc2ccc3c(c2)OCO3)[C@@H](C)CN([C@H](C)CO)C(=O)c2cc(NC(=O)Nc3cccc4ccccc34)ccc2O1 | > 15 µM (inactive)
COC(=O)C1=C(C)N(C)C(=S)NC1c1ccccc1 (stereo not drawn) | > 26 µM (inactive)
S=C(Nc1ccc(Cl)cc1Cl)Nc1ccccc1Oc1ccccc1 | 3.3 µM
Cc1cc(C)c2nc(N3CCN(C(=O)c4cccs4)CC3)sc2c1 | 2.56 µM
CCCC(=O)Nc1ccc2c(c1)C(=O)N(C)C[C@H](OC)[C@@H](C)CN(C(=O)c1cccnc1)[C@@H](C)CO2 | > 15 µM (inactive)
COC(=O)C1=C(C)N(Cc2ccccc2)C(=S)N[C@H]1c1cccc(F)c1 | 11.7 µM
Cc1ccc(S(=O)(=O)N[C@H]2C=C[C@@H](CC(=O)N3CCC(Cc4ccccc4)CC3)O[C@H]2CO)cc1 | > 15 µM (inactive)
COc1ccc(C(=O)NC(=S)Nc2ccccc2N2CCCCC2)cc1[N+](=O)[O-] | 3.29 µM
CC(C)NC(=O)N(C)C[C@H]1OCCCC[C@H](C)Oc2ccc(NC(=O)c3ccccc3)cc2C(=O)N([C@@H](C)CO)C[C@@H]1C | > 15 µM (inactive)
CCOc1ccc(CNC(=S)NCc2ccc(OCC)cc2)cc1 | > 15 µM (inactive)
